# Measurements published in publication PMC6702965, “Inhibition of Porcine Viruses by Different Cell-Targeted Antiviral Drugs” (Frontiers in Microbiology, 2019).
# Read-outs that look alike come from different tables or passages of the source.
# What was measured:
# ASFV Ba71V [1] = assay: microbe, parasite or virus in culture; type: cell-based, African swine fever virus; settings: for IC50: African swine fever virus
# ASFV isolate E70 = assay: microbe, parasite or virus in culture; type: cell-based; settings: African swine fever virus, COS, read-out: IC50 on virus yield
# ASFV = system: ASFV; parameters: species or system African swine fever virus
# FMDV [2] = system: FMDV; parameters: species or system foot and mouth disease virus
# ASFV Ba71V [3] = type: cell-based, African swine fever virus
# ASFV Ba71V [4] = type: cell-based, African swine fever virus; remark: listed apart in the source
# MTT cell viability assay [5] = settings: African green monkey, Vero cells
# MTT cell viability assay [6] = settings: African green monkey, COS cells
# MTT cell viability assay [7] = settings: hamster, BHK cells
# MTT cell viability assay [8] = settings: pig, IBRS-2 cells
# FMDV C-S8 [9] = assay: microbe, parasite or virus in culture; type: cell-based, foot and mouth disease virus
# FMDV O-UK = assay: microbe, parasite or virus in culture; type: cell-based, foot and mouth disease virus
# VSV Indiana = assay: microbe, parasite or virus in culture; type: cell-based, vesicular stomatitis virus
# SVDV SP93 = assay: microbe, parasite or virus in culture; type: cell-based, swine vesicular disease virus
# FMDV C-S8 [10] = type: cell-based, foot and mouth disease virus
# FMDV C-S8 [11] = type: cell-based, foot and mouth disease virus; remark: listed apart in the source
# FMDV C-S8 [12] = type: cell-based, foot and mouth disease virus; remark: listed apart in the source
# FMDV C-S8 [13] = system: FMDV C-S8; parameters: species or system C57 mice; settings: mouse, in vivo
# [14] = C57, mouse, in vivo
# FMDV C-S8 [15] = settings: mouse, in vivo
# ASFV Ba71V [16] = settings: cited from earlier work
# VSV = settings: cited from earlier work
# FMDV [17] = settings: cited from earlier work
# SVDV = settings: ref Vazquez-Calvo et al., 2011; cited from earlier work
# [18] = read-out: IC50 on ASFV production
smiles,measurement,setting,value
"C/C=C/C/C=C/CCC(=O)[C@H]1O[C@H]1C(N)=O [CRL, cerulenin]",IC50,ASFV Ba71V [1]; [18],9 µM
same,IC50,ASFV isolate E70,3 µM
same,Direct virucidal effect (virotoxicity),ASFV,no direct toxicity
same,Direct virucidal effect (virotoxicity),FMDV [2],no direct toxicity
same,Expression of early virus protein p32,ASFV Ba71V [3],very low expression
same,"Expression of late ASFV proteins (p17, p12)",ASFV Ba71V [3],No late ASFV proteins
same,Effect of time of addition on virus yield,ASFV Ba71V [4],recovery of virus productivity was observed when CRL was added as early as 0 h after infection
same,CC50 at 24 h,MTT cell viability assay [5],45 µM
same,CC50 at 24 h,MTT cell viability assay [6],60 µM
same,CC50 at 24 h,MTT cell viability assay [7],60 µM
same,CC50 at 24 h,MTT cell viability assay [8],40 µM
"O=C(O)c1cc(O)c(O)c(O)c1 [G, gallic acid]",Inhibition of FMDV growth,FMDV C-S8 [9],Neither G nor PG inhibited FMDV growth
"CCCCCCCCCCCCOC(=O)c1cc(O)c(O)c(O)c1 [LG, lauryl gallate]",Virus yield reduction,ASFV Ba71V [1],about 3 log.u.
same,IC50,"ASFV Ba71V [1]; COS, 24 h, read-out: IC50 on virus yield",0.4 µM
same,IC50,"ASFV Ba71V [1]; Vero, 24 h, read-out: IC50 on virus yield",1 µM
same,IC50,ASFV isolate E70,2 µM
same,Decrease in virus production,FMDV C-S8 [9],at least 1 log.u.
same,Reduction of virus yield,FMDV C-S8 [9],up to 2 log.u
same,IC50,"FMDV C-S8 [9]; Foot-and-mouth disease virus, BHK-21, read-out: IC50 on virus yield",0.2 to 2.5 µM
same,Decrease in virus production,FMDV O-UK,at least 1 log.u.
same,IC50,"FMDV O-UK; Foot-and-mouth disease virus, read-out: IC50 on virus yield",0.7 µM
same,Reduction of virus productivity,VSV Indiana,2 log.u.
same,IC50,"VSV Indiana; Vesicular stomatitis virus, BHK-21, read-out: IC50 on virus yield",0.9 µM
same,Reduction of virus productivity,SVDV SP93,1 log.u.
same,IC50,"SVDV SP93; Enterovirus B, read-out: IC50 on virus yield",1.7 µM
same,Direct virucidal effect (virotoxicity),ASFV,no direct toxicity
same,Direct virucidal effect (virotoxicity),FMDV [2],no direct toxicity
same,Expression of structural (VP1) and non-structural (3C) FMDV proteins,FMDV C-S8 [10],significantly reduced
same,Amount of intracellular FMDV RNA,FMDV C-S8 [11],not affected
same,Extracellular virus (RNA),FMDV C-S8 [11],significantly reduced
same,Positive strand viral RNA synthesis,FMDV C-S8 [11],transiently inhibited
same,Time of LG addition up to which virus productivity was blocked,FMDV C-S8 [12],up to 7 h.p.i.
same,"Viral RNA copies (VRC) in blood, spleen, lung, heart and thymus",FMDV C-S8 [13],significant reduction
same,Non-toxic working concentrations,[14],up to 200 mg/kg
same,Body weight,FMDV C-S8 [15],lower weights
same,Protection against FMDV challenge,FMDV C-S8 [15],no protection
same,Survival rate,FMDV C-S8 [15],70%
same,Time of LG addition up to which virus production was inhibited,ASFV Ba71V [16],up to 5 h.p.i.
same,CC50 at 24 h,MTT cell viability assay [5],45 µM
same,CC50 at 24 h,MTT cell viability assay [6],33 µM
same,CC50 at 24 h,MTT cell viability assay [7],75 µM
same,CC50 at 24 h,MTT cell viability assay [8],30 µM
"CCCCCCCCOC(=O)c1cc(O)c(O)c(O)c1 [OG, octyl gallate]",Effect on ASFV infection,ASFV Ba71V [1],inhibitory effect
same,Reduction of virus yields,FMDV C-S8 [9],2 log.u.
"CCCOC(=O)c1cc(O)c(O)c(O)c1 [PG, propyl gallate]",Inhibition of FMDV growth,FMDV C-S8 [9],Neither G nor PG inhibited FMDV growth
"CCCC(CCC)C(=O)O [VPA, valproic acid]",IC50,ASFV Ba71V [1]; [18],2500 to 3000 µM
same,IC50,ASFV isolate E70,2500 µM
same,Direct virucidal effect (virotoxicity),ASFV,no direct toxicity
same,Direct virucidal effect (virotoxicity),FMDV [2],no direct toxicity
same,Expression of early virus protein p32,ASFV Ba71V [3],very low expression
same,"Expression of late ASFV proteins (p17, p12)",ASFV Ba71V [3],No late ASFV proteins
same,Effect of time of addition on virus yield,ASFV Ba71V [4],gradual recovery of virus yields
same,Susceptibility of infection to the drug,VSV,susceptible
same,Susceptibility of infection to the drug,FMDV [17],not affected
same,Susceptibility of infection to the drug,SVDV,not affected
same,CC50 at 24 h,MTT cell viability assay [5],50000 µM
